PMC11435058, “Synthesis of New Thiazole-Privileged Chalcones as Tubulin Polymerization Inhibitors with Potential Anticancer Activities” (Pharmaceuticals, 2024)

Tests used:
OVCAR-3 = test: cells; conditions: Homo sapiens
HL-60(TB) = test: NCI-60 anticancer screen (SRB; single dose and five doses); conditions: Homo sapiens
K-562 = test: as above; conditions: Homo sapiens
SR = test: as above; conditions: Homo sapiens
EKVX = test: as above; conditions: Homo sapiens
HT29 = test: as above; conditions: Homo sapiens
KM12 = test: as above; conditions: Homo sapiens
SW-620 = test: as above; conditions: Homo sapiens
SF-268 = test: as above; conditions: Homo sapiens
SNB-75 = test: as above
U251 = test: as above; conditions: Homo sapiens
LOX IMVI = test: as above; conditions: Homo sapiens
MDA-MB-435 = test: as above; conditions: Homo sapiens
SK-MEL-2 = test: as above; conditions: Homo sapiens
SK-MEL-5 = test: as above; conditions: Homo sapiens
UACC-257 = test: as above; conditions: Homo sapiens
UACC-62 = test: as above; conditions: Homo sapiens
IGROV1 = test: as above; conditions: Homo sapiens
OVCAR-4 = test: as above; conditions: Homo sapiens
OVCAR-5 = test: as above; conditions: Homo sapiens
786-0 = test: as above; conditions: Homo sapiens
CAKI-1 = test: as above; conditions: Homo sapiens
SN12C = test: as above; conditions: Homo sapiens
UO-31 = test: as above; conditions: Homo sapiens
DU-145 = test: as above; conditions: Homo sapiens
MCF7 = test: as above; conditions: Homo sapiens
MDA-MB-231/ATCC = test: as above; conditions: Homo sapiens
HS 578T = test: as above; conditions: Homo sapiens
T-47D = test: as above; conditions: Homo sapiens, T47D
[1] = 48 h, read-out: Growth Percentage

Cc1[nH]c(=S)sc1C(=O)/C=C/c1cccc(Cl)c1 [2e, (E)-3-(3-Chlorophenyl)-1-(4-Methyl-2-Thioxo-2,3-Dihydrothiazol-5-yl)Prop-2-En-1-One]
GI50 (OVCAR-3; OVCAR-3): 2.29 µM
IC50 (OVCAR-3; OVCAR-3): 4.17 µM
activity at 10 µM (OVCAR-3; OVCAR-3, 48 h, read-out: Growth Percentage): 8.26%
CC50 (OVCAR-3; OVCAR-3, read-out: LC50): 22.9 µM
IC (TGI) (OVCAR-3; OVCAR-3, read-out: TGI): 6.03 µM
GI50 (HL-60(TB); HL-60): 2.24 µM
IC50 (HL-60(TB); HL-60): 4.27 µM
activity at 10 µM (HL-60(TB); HL-60, 48 h, read-out: Growth Percentage): 25.3%
CC50 (HL-60(TB); HL-60, read-out: LC50): > 100 µM
IC (TGI) (HL-60(TB); HL-60, read-out: TGI): 7.08 µM
GI50 (K-562; K562): 3.39 µM
IC50 (K-562; K562): 4.27 µM
activity at 10 µM (K-562; K562, 48 h, read-out: Growth Percentage): 16.8%
CC50 (K-562; K562, read-out: LC50): > 100 µM
IC (TGI) (K-562; K562, read-out: TGI): > 100 µM
GI50 (SR): 2.63 µM
IC50 (SR): 3.89 µM
activity at 10 µM (SR; [1]): 3.42%
CC50 (SR; read-out: LC50): > 100 µM
IC (TGI) (SR; read-out: TGI): > 100 µM
GI50 (EKVX): 10.5 µM
IC50 (EKVX): 24 µM
activity at 10 µM (EKVX; [1]): 34.7%
CC50 (EKVX; read-out: LC50): 95.5 µM
IC (TGI) (EKVX; read-out: TGI): 31.6 µM
GI50 (HT29; HT-29): 2.24 µM
IC50 (HT29; HT-29): 3.55 µM
activity at 10 µM (HT29; HT-29, 48 h, read-out: Growth Percentage): 29.9%
CC50 (HT29; HT-29, read-out: LC50): 12.6 µM
IC (TGI) (HT29; HT-29, read-out: TGI): 4.9 µM
GI50 (KM12; KM12): 1.95 µM
IC50 (KM12; KM12): 3.39 µM
activity at 10 µM (KM12; KM12, 48 h, read-out: Growth Percentage): -30.7%
IC (TGI) (KM12; KM12, read-out: TGI): 3.89 µM
GI50 (SW-620; SW-620): 1.91 µM
IC50 (SW-620; SW-620): 3.16 µM
activity at 10 µM (SW-620; SW-620, 48 h, read-out: Growth Percentage): 8.6%
CC50 (SW-620; SW-620, read-out: LC50): 7.59 µM
IC (TGI) (SW-620; SW-620, read-out: TGI): 3.8 µM
GI50 (SF-268; SF-268): 3.72 µM
IC50 (SF-268; SF-268): 7.59 µM
activity at 10 µM (SF-268; SF-268, 48 h, read-out: Growth Percentage): 51.8%
CC50 (SF-268; SF-268, read-out: LC50): 97.7 µM
IC (TGI) (SF-268; SF-268, read-out: TGI): 17 µM
GI50 (SNB-75; Homo sapiens, SNB-75): 1.66 µM
IC50 (SNB-75; Homo sapiens, SNB-75): 3.8 µM
activity at 10 µM (SNB-75; Homo sapiens, SNB-75, 48 h, read-out: Growth Percentage): 8.74%
TGI (SNB-75; five-dose, CNS Cancer SNB-75): 3.63 µM
GI50 (U251; U-251): 1.91 µM
IC50 (U251; U-251): 3.31 µM
activity at 10 µM (U251; U-251, 48 h, read-out: Growth Percentage): 12.1%
CC50 (U251; U-251, read-out: LC50): 7.24 µM
IC (TGI) (U251; U-251, read-out: TGI): 3.72 µM
GI50 (LOX IMVI): 1.66 µM
IC50 (LOX IMVI): 2.88 µM
activity at 10 µM (LOX IMVI; [1]): -26.1%
CC50 (LOX IMVI; read-out: LC50): 5.75 µM
IC (TGI) (LOX IMVI; read-out: TGI): 3.09 µM
GI50 (MDA-MB-435; MDA-MB-435): 2.09 µM
IC50 (MDA-MB-435; MDA-MB-435): 3.55 µM
activity at 10 µM (MDA-MB-435; MDA-MB-435, 48 h, read-out: Growth Percentage): 17.3%
CC50 (MDA-MB-435; MDA-MB-435, read-out: LC50): 17 µM
IC (TGI) (MDA-MB-435; MDA-MB-435, read-out: TGI): 5.01 µM
GI50 (SK-MEL-2; SK-MEL-2): 10.5 µM
IC50 (SK-MEL-2; SK-MEL-2): 29.5 µM
activity at 10 µM (SK-MEL-2; SK-MEL-2, 48 h, read-out: Growth Percentage): 32.1%
CC50 (SK-MEL-2; SK-MEL-2, read-out: LC50): 70.8 µM
IC (TGI) (SK-MEL-2; SK-MEL-2, read-out: TGI): 27.5 µM
GI50 (SK-MEL-5; SK-MEL-5): 4.79 µM
IC50 (SK-MEL-5; SK-MEL-5): 9.12 µM
activity at 10 µM (SK-MEL-5; SK-MEL-5, 48 h, read-out: Growth Percentage): 16.1%
CC50 (SK-MEL-5; SK-MEL-5, read-out: LC50): 41.7 µM
IC (TGI) (SK-MEL-5; SK-MEL-5, read-out: TGI): 17 µM
GI50 (UACC-257; UACC-257): 3.63 µM
IC50 (UACC-257; UACC-257): 9.77 µM
activity at 10 µM (UACC-257; UACC-257, 48 h, read-out: Growth Percentage): 52.7%
CC50 (UACC-257; UACC-257, read-out: LC50): 63.1 µM
IC (TGI) (UACC-257; UACC-257, read-out: TGI): 14.8 µM
GI50 (UACC-62; UACC-62): 2.34 µM
IC50 (UACC-62; UACC-62): 4.17 µM
activity at 10 µM (UACC-62; UACC-62, 48 h, read-out: Growth Percentage): 30%
IC (TGI) (UACC-62; UACC-62, read-out: TGI): 8.71 µM
GI50 (IGROV1; IGROV-1): 2.45 µM
IC50 (IGROV1; IGROV-1): 4.17 µM
activity at 10 µM (IGROV1; IGROV-1, 48 h, read-out: Growth Percentage): 34%
CC50 (IGROV1; IGROV-1, read-out: LC50): > 100 µM
IC (TGI) (IGROV1; IGROV-1, read-out: TGI): 6.46 µM
GI50 (OVCAR-4; OVCAR-4): 4.47 µM
IC50 (OVCAR-4; OVCAR-4): 12.9 µM
activity at 10 µM (OVCAR-4; OVCAR-4, 48 h, read-out: Growth Percentage): 31.7%
CC50 (OVCAR-4; OVCAR-4, read-out: LC50): > 100 µM
IC (TGI) (OVCAR-4; OVCAR-4, read-out: TGI): 41.7 µM
GI50 (OVCAR-5; OVCAR-5): 5.25 µM
IC50 (OVCAR-5; OVCAR-5): 15.5 µM
activity at 10 µM (OVCAR-5; OVCAR-5, 48 h, read-out: Growth Percentage): 36.4%
CC50 (OVCAR-5; OVCAR-5, read-out: LC50): 57.5 µM
IC (TGI) (OVCAR-5; OVCAR-5, read-out: TGI): 19.9 µM
GI50 (786-0; 786-0): 2.51 µM
IC50 (786-0; 786-0): 4.07 µM
activity at 10 µM (786-0; 786-0, 48 h, read-out: Growth Percentage): 13.3%
CC50 (786-0; 786-0, read-out: LC50): 37.1 µM
IC (TGI) (786-0; 786-0, read-out: TGI): 6.31 µM
GI50 (CAKI-1; CAKI-1): 4.68 µM
IC50 (CAKI-1; CAKI-1): 15.5 µM
activity at 10 µM (CAKI-1; CAKI-1, 48 h, read-out: Growth Percentage): 23.9%
CC50 (CAKI-1; CAKI-1, read-out: LC50): 69.2 µM
IC (TGI) (CAKI-1; CAKI-1, read-out: TGI): 20.9 µM
GI50 (SN12C): 2 µM
IC50 (SN12C): 3.55 µM
activity at 10 µM (SN12C; [1]): 12%
CC50 (SN12C; read-out: LC50): 8.91 µM
IC (TGI) (SN12C; read-out: TGI): 4.27 µM
GI50 (UO-31; UO-31): 1.55 µM
IC50 (UO-31; UO-31): 2.88 µM
activity at 10 µM (UO-31; UO-31, 48 h, read-out: Growth Percentage): 34.3%
IC (TGI) (UO-31; UO-31, read-out: TGI): 3.09 µM
GI50 (DU-145; DU-145): 3.24 µM
IC50 (DU-145; DU-145): 4.79 µM
activity at 10 µM (DU-145; DU-145, 48 h, read-out: Growth Percentage): 16.1%
CC50 (DU-145; DU-145, read-out: LC50): 42.7 µM
IC (TGI) (DU-145; DU-145, read-out: TGI): 11.5 µM
GI50 (MCF7; MCF7): 3.31 µM
IC50 (MCF7; MCF7): 8.13 µM
activity at 10 µM (MCF7; MCF7, 48 h, read-out: Growth Percentage): 7.9%
CC50 (MCF7; MCF7, read-out: LC50): 37.1 µM
IC (TGI) (MCF7; MCF7, read-out: TGI): 12.3 µM
GI50 (MDA-MB-231/ATCC; MDA-MB-231): 2.45 µM
IC50 (MDA-MB-231/ATCC; MDA-MB-231): 6.17 µM
activity at 10 µM (MDA-MB-231/ATCC; MDA-MB-231, 48 h, read-out: Growth Percentage): -0.43%
CC50 (MDA-MB-231/ATCC; MDA-MB-231, read-out: LC50): 39.8 µM
IC (TGI) (MDA-MB-231/ATCC; MDA-MB-231, read-out: TGI): 6.92 µM
GI50 (HS 578T): 3.09 µM
IC50 (HS 578T): > 100 µM
activity at 10 µM (HS 578T; [1]): 47.2%
CC50 (HS 578T; read-out: LC50): > 100 µM
IC (TGI) (HS 578T; read-out: TGI): 85.1 µM
GI50 (T-47D): 3.39 µM
IC50 (T-47D): 7.94 µM
activity at 10 µM (T-47D; [1]): 4.54%
CC50 (T-47D; read-out: LC50): > 100 µM
IC (TGI) (T-47D; read-out: TGI): 20.9 µM
